# Experimental data published in patent US20220331467A1, “HALAL DISINFECTANT LIQUID” (priority 2019, published 2022).
# Assays:
# eye = details: OECD TG 405; cited from earlier work
# guinea pig skin = details: female, Slc:Hartley, in vivo
# Description: To find information related to the skin sensitization of a chlorous acid aqueous solution formulation, a Maximization Test was conducted using 20 female Slc:Hartley guinea pigs (SPF). […] In the test substance treatment group, 0.2 w/v % test substance solution (medium: distilled water) was intradermally injected in the first sensitization treatment using 10 animals, and a closed patch of 100% test substance solution (undiluted solution) was applied for 48 hours in the second sensitization treatment. A closed patch of 20 w/v % test substance solution was applied for 24 hours for elicitation treatment.
# The prepared administered solutions (1) to (3) (section 14.9.1) of each test group were intradermally injected at 0.1 mL each to correspond to administration sites (1) to (3) in image 1.
# The chest and back (image 1, site (4)) of an animal were shaved using an electric clipper and shaver on day 7. Open patch of 10% sodium dodecyl sulfate mixture (section 14.9.2) was applied thinly and homogeneously at the same site to a test substance treatment group and negative control group. […]
# The body weight was measured before starting sensitization treatment (day 0) and the day of completion of observation of elicitation treatment sites (day 25). […]
# The skin sensitization rate is calculated as [(number of sensitization positive animals/number of animals used)×100].
# rabbit skin = test: Skin irritability test using rabbits (OECD 404); format: in vivo; details: 0.5 mL patch, 4 hours exposure
# Description: To study the skin irritability and corrosiveness of a chlorous acid aqueous solution formulation, a skin irritability test was conducted using three female Kbl:NZW rabbits. The irritability reaction was compared by setting a three rabbit sodium hypochlorite formulation treatment group as a comparative control group. 0.5 mL of test substance was applied homogenously to a lint patch and exposed 4 hours to the skin on the back of the rabbits. […] In addition, the body weight before administration and at the end of observation was measured.
# For administration, 0.5 mL of test substance was spread homogeneously on the lint surface of a 2.45×2.45 cm patch (lint cloth, Hasegawa Menkou) by using a MICROMAN (model M1000, Gilson), and then applied to the back skin of animals using a paper adhesive tape (KENZ). Furthermore, the entire treatment site was covered with a large lint cloth (Hasegawa Menkou), which was secured with an adhesive bandage (New-HALE, Hasegawa Menkou). Exposure time was 4 hours. The patch was removed after completion of exposure. […]
# Erythema, eschar formation, and edema at sites of administration were observed 1, 24, 48, and 72 hours after patch removal, and scored in accordance with determination criteria for skin reactions (Draize, 1959). […]
# The body weight was measured on the administration date (before administration) and date of completion of observation for all tested animals. […]
Structure (SMILES),Severe injury to eye or eye irritability (GHS category) (eye),"Number of animals showing the sign: General condition, No abnormality observed (guinea pig skin)",Number of positive animal (guinea pig skin),GHS hazard category of dermal irritation/corrosion (rabbit skin)
"CCO [Ethanol 95 v/v %, Ethanol]",Category 2B,–,–,–
"CCCCCCC(C=O)=Cc1ccccc1 [HCA, α-Hexylcinnamaldehyde]",–,0,5,–
"OCl [Sodium hypochlorite, sodium hypochlorite]",Category 1,–,–,Category 1
